According to patent US20200020099A1, “INFORMATION PROCESSING DEVICE, INFORMATION PROCESSING SYSTEM, AND INFORMATION PROCESSING METHOD” (SONY CORPORATION, priority 2017, published 2020):

Columns and labels:
[1] = tested on: HL60 cell; test: Quantification of morphological change (area change amount, peripheral length change amount) from phase difference moving images; type: cell-based
Text: An image (moving image) of an HL60 cell that had been differentiated and stimulated by adding 1% DMSO and performing culture for one week was imaged over time with a phase difference microscope under conditions that magnification of an objective lens was 60 times, an imaging interval was 27 frames/second, and imaging time was 60 seconds. FIG. 5 is an image illustrating cell boundary recognition and tracking according to Example 1. […] Thereafter, the cell boundary was tracked by matching the drawn solid line to a next image. Then, a cell area in the continuous image was tracked by repeating matching to the continuous image.
Thereafter, the area and the peripheral length were calculated from the tracked cell area, and an average of the areas, an average of the peripheral lengths, and change amounts thereof in the continuous image were calculated. Then, the change amount with respect to the average of the areas or peripheral lengths was calculated as the morphological change amount (area change amount and peripheral length change amount). This was used as Control. By a similar method, as for a case where 100 μM of a mitochondrial […] agent, carbonyl cyanide m-chlorophenylhydrazone (also simply referred to as “CCCP” here), which is a drug that inhibits intracellular metabolism, was added, the morphological change amount was calculated similarly. The upper drawing of FIG. 6 is a drawing-substituting graph illustrating an area change amount and a peripheral length change amount according to Example 1, and the lower drawing of FIG. 6 is an image illustrating cell boundary recognition and tracking in Control and in a case where CCCP is added according to Example 1.

[2] = tested on: HL60 cell; test: Motion amount of the intracellular structure (motion vector analysis) from moving images; type: cell-based; details: concentrations of 0.01 μM, 0.1 μM, 1 μM, and 10 μM, FIG. 7
Text: More specifically, the analysis unit 121 extracts a motion vector between at least two imaged images having different imaging times. For example, the analysis unit 121 can extract a motion vector from a range designated by a user using a […], a gradient method, or the like. Note that the analysis unit 121 may extract a motion vector from the entire imaged image.
The length of a motion vector is a motion amount. The analysis unit 121 can calculate a motion amount (motion speed) of an intracellular structure per unit time from an interval (time) of the two imaged images from which the motion vector has been extracted. Note that in the present technology, the motion amount of the intracellular structure can be determined using an average value, a median value, a maximum value, a standard deviation, and the like of the lengths of the motion vectors.
By a similar method to Example 1 described above, the morphological change amounts (area change amounts and peripheral length change amounts) in a case where CCCP was added at concentrations of 0.01 μM, 0.1 μM, 1 μM, and 10 μM were calculated, respectively. Furthermore, a motion vector under similar conditions was calculated at an interval of about 1 μm, and a spatiotemporal average of the motion amounts (motion speeds) per unit time for each cell was calculated to create a color map. […]

[3] = 100 μM added, differentiated HL60 cell (1% DMSO, one week), vs Control, FIG. 6
[4] = concentrations of 0.01 μM, 0.1 μM, 1 μM, and 10 μM, HL60 cell, FIG. 7
[5] = 200 nM added, HL60 cell, vs Control, FIG. 10

| Compound | area change amount [1, 3] | peripheral length change amount [1, 3] | area change amount [1, 4] | peripheral length change amount [1, 4] | motion amount (vector analysis) of the intracellular structure [2] | area change amount [1, 5] | peripheral length change amount [1, 5] |
| --- | --- | --- | --- | --- | --- | --- | --- |
| N#CC(C#N)=NNc1cccc(Cl)c1 [CCCP, carbonyl cyanide m-chlorophenylhydrazone] | significant decrease | significant decrease | concentration-dependent decrease | concentration-dependent decrease | concentration-dependent decrease |  |  |
| C=C1[C@@H](C)[C@H]2[C@H](Cc3ccccc3)NC(=O)[C@]23[C@H](OC(C)=O)/C=C/[C@@](C)(O)C(=O)[C@@H](C)C/C=C/[C@H]3[C@@H]1O [Cytochalasin D] |  |  |  |  |  | significant decrease | significant decrease |
